# Laboratory results as given in patent publication US20050220726A1, “Use of sugar esters in cosmetic and/or pharmaceutical preparations” (priority 2003, published 2005).
# Experiments:
# [1] = system: bacterial collagenase (clostridium histolyticum); assay: Collagenase inhibition on FITC-marked gelatin; type: biochemical; conditions: Conc. [w/v] 0.3; 60 mins. at 20° C.
# Experimental: In the event of inflammation, skin proteases, for example collagenase, are released from the polymorphonuclear neutrophilic granulocytes or macrophages. A similar process takes place in the skin of elderly people on exposure to UV rays. As already mentioned, the proteases—also known as matrix metalloproteases (MMPs) through their content of central zinc ions—catalyze the fragmentation of connective tissue proteins. The test substances were tested for collagenase inhibition using bacterial collagenase (clostridium histolyticum) on gelatin marked with fluorochromium (FITC, Calbiochem) as a natural nutrient medium. The incubation time was 60 mins. at 20° C.; the hydrolysis of the substrate was monitored by fluorescence at 393 nm (excitation at 328 nm). The results are set out in Table 6 as the collagenase inhibition in %.
# human fibroblasts [2] = assay: Anti-stress effect on UV-A-damaged fibroblasts; type: cell-based; conditions: conc. 0.001 % w/v, + UV-A 20 J/cm^2; for Cell proteins: blank sample = 100; for GSH/proteins: blank sample = 100, blank + UV-A = 65
# Experimental: UV-A radiation in the 320 to 400 nm range induces oxidative stress which is mainly produced by the activation of photosensitive biological components which in turn catalyze the formation of ROS-like superoxide anions, hydrogen peroxide and singlet oxygen atoms. The anti-UV-A effect was tested on fibroblasts because UV-A radiation penetrates through the dermis where it causes oxidative damage by lipoperoxidation of the cell membrane and a reduction in the content of reduced glutathione (GHS). To this end, human fibroblasts were cultivated as described in a), exposed to UV-A rays (20 J/cm^2) and the cell counts and the GSH content subsequently determined. The results are set out in Table 3, where they are expressed in %-rel. against a blank sample, and represent the results of 3 series of measurements with triple determination.
# [3] = system: Staphylococcus epidermidis; assay: Agar diffusion method, inhibition zones; type: cell-based; conditions: filter paper with 20 μl test substance; 18 to 24 h at 37° C.
# Experimental: (§1) The antibacterial activity of the test substances was tested by the diffusion method on agar plates or the agar dilution method. In this method, a round filter paper of defined diameter is first impregnated with the test solution and then applied to the surface of an agar plate inoculated beforehand with the test microorganisms. The size of the inhibition zones is then determined after defined times. In particular, it is possible by this method to determine the MIC (Minimum Inhibitory Concentration) as the lowest concentration of test substance with which complete inhibition of the microorganisms can be obtained.
# (§2) Agar diffusion method. The inoculum was prepared using a fresh culture in a stationary growth phase (after ca. 18-24 h) in a BHI solution (brain-heart Infusion). The bacterial suspension was adjusted to 0.5 MacFarland units, corresponding to 1.5 10^8 colony-forming units (cfu)/ml; the suspension was then diluted with a sodium chloride solution (1:100) to adjust a value of 1.5 10^6 cfu/ml. Mueller-Hinton agar (Staphylococcus epidermidis, Staphylococcus aureus) and Wilkins-Chalgrens agar containing 5% by weight sheep's blood (Propionibacterium acnes) were then sterilized for 15 mins. at 121° C. and then placed in Petri dishes. 2 to 4 ml of the bacterial suspension were then added to the Petri dishes, followed by drying at room temperature. The filter papers were impregnated with 20 μl of the test substances and applied to the surface of the agar plates. The inoculated Petri dishes were incubated for 18 to 24 h at 37° C. (the Petri dishes containing Propionibacterium acnes under anaerobic conditions) and the antimicrobial activity was then determined by determination of the growth inhibition zones. The results are set out in Table 10 and represent the diameters of the inhibition zones in mm.
# Staphylococcus aureus [4] = assay: Agar diffusion method, inhibition zones; type: cell-based; conditions: filter paper with 20 μl test substance; 18 to 24 h at 37° C.
# Experimental: as §1, §2
# Propionibacterium acnes [5] = assay: Agar diffusion method, inhibition zones; type: cell-based; conditions: filter paper with 20 μl test substance; 18 to 24 h at 37° C., anaerobic
# Experimental: as §1, §2
# human fibroblasts [6] = assay: Regenerative effect and detoxifying potential: GSH in human fibroblasts; type: cell-based; conditions: conc. 0.001 % w/v; 3 days in test solution; against blank sample = 100
# Experimental: Glutathione (GSH) is a special protein which is produced by the cells for protection against oxidative stress and environmental poisons, more particularly against heavy metals. The three amino acids involved in the reduced form of GSH are linked to special cytoplasmatic enzymes which need ATP for activation. An increase in the GSH concentration leads to an increase in the glutatione-S-transferase activity, a detoxifying enzyme. The stimulation for detoxification by the test substances was tested on human fibroblasts by measurement of the GSH. In a series of tests, fibroblasts were first incubated for 3 days at 37° C. in a nutrient solution and then for 3 days at the same temperature in a test solution. The protein content in the cells was then determined by the Bradford method and the GSH concentration by the Hissin method [cf. Analytical Biochem. 74, 214-226 1977]. The results are set out in Table 2, where they are expressed in %-rel. against a blank sample, and represent the results of 3 series of measurements with triple determination.
# [7] = system: Staphylococcus epidermidis; assay: Agar dilution method (MIC determination); type: cell-based; conditions: 18 to 24 h at 37° C.
# Experimental: as §1, with “obtained. Agar dilution method (MIC determination). Various agars were prepared as described above, test substances were added in various concentrations, homogenized and dried. The Petri dishes were then inoculated with quantities of 2 μl of the bacterial suspension. After each drying step the Petri dishes were incubated for 18 to 24 h at 37° C. […] The results represent the averages of double determinations.” for “obtained.”
# Staphylococcus aureus [8] = assay: Agar dilution method (MIC determination); type: cell-based; conditions: 18 to 24 h at 37° C.
# Experimental: as §1, with “obtained. Agar dilution method (MIC determination). Various agars were prepared as described above, test substances were added in various concentrations, homogenized and dried. The Petri dishes were then inoculated with quantities of 2 μl of the bacterial suspension. After each drying step the Petri dishes were incubated for 18 to 24 h at 37° C. […] The results represent the averages of double determinations.” for “obtained.”
# Propionibacterium acnes [9] = assay: Agar dilution method (MIC determination); type: cell-based; conditions: 18 to 24 h at 37° C.
# Experimental: as §1, with “obtained. Agar dilution method (MIC determination). Various agars were prepared as described above, test substances were added in various concentrations, homogenized and dried. The Petri dishes were then inoculated with quantities of 2 μl of the bacterial suspension. After each drying step the Petri dishes were incubated for 18 to 24 h at 37° C. […] The results represent the averages of double determinations.” for “obtained.”
# [10] = system: melanocytes (B16 cell line); assay: Inhibition of melanin synthesis in B16 melanocytes; type: cell-based; conditions: 3 days, blank value = 100
# Experimental: Melanin is the pigment responsible for the color of the skin and hair. It is formed in special organelles, the melanosomes, which occur in the melanocytes of the basal layer of the human epidermis. The biosynthesis of melanin begins with the amino acid tyrosine which is oxidized to DOPA (dihydroxyphenylalanine) in the presence of tyrosinase. The DOPA then polymerizes to melanin. […] After incubation for 3 days at 37° C./5% CO2, the nutrient medium was replaced by a solution containing the test substances in various concentrations. After incubation for another 3 days, the cell protein content (Bradford's method) and the content of synthesized melanin were determined through the optical density of the homogenizate at 475 nm. The results are expressed in % against a blank value and are set out in Table 7.
Substance,Collagenase inhibition [1] [%-rel.],Cell proteins (human fibroblasts [2]) [%-rel.],GSH/proteins (human fibroblasts [2]) [%-rel.],"Inhibition zones, Staphylococcus epidermidis [3] [mm]","Inhibition zones, Staphylococcus aureus (Staphylococcus aureus [4]) [mm]","Inhibition zones, Propionibacterium acnes (Propionibacterium acnes [5]) [mm]",GSH/proteins (human fibroblasts [6]) [%-rel.],"MIC, Staphylococcus epidermidis [7] [µg/mL]","MIC, Staphylococcus aureus (Staphylococcus aureus [8]) [µg/mL]","MIC, Propionibacterium acnes (Propionibacterium acnes [9]) [µg/mL]",Cell melanin ([10]; conc. 0.001 % w/v) [%-rel.],Cell proteins ([10]; conc. 0.001 % w/v) [%-rel.],Cell melanin ([10]; conc. 0.003 % w/v) [%-rel.],Cell proteins ([10]; conc. 0.003 % w/v) [%-rel.]
Trehalose palmitate,9,124,87,11,14,0,125,,,,,,,
Trehalose stearate,,124,84,11,12,0,141,625,>10000,1250,81,97,41,93
